Experimental data: patent US20250268826A1, “IONIZABLE LIPIDOID COMPOSITIONS AND THERAPEUTIC USES THEREOF” (Flagship Pioneering Innovations VII, LLC, priority 2023, published 2025)
Each block holds one compound with its values, some of them ahead of it.

Columns and labels:
Type in all cases: physicochemical
Conditions in all cases: hEPO mRNA
[1] = LNP size and polydispersity index (PDI) by dynamic light scattering (DLS)
[2] = LNP Zeta potential measured using a Zetasizer (Malvern)
[3] = Encapsulation efficiency (EE %) by fluorescence based Ribogreen assay
[4] = Table 1, LNP lipid:DSPC:Cholesterol:DMG-PEG2k 50:10:38.5:1.5 mol %, N:P 6
[5] = Table 3, LNP 50:10:38.5:1.5 mol %, N:P 6
[6] = Table 4, LNP 40:10:48.5:1.5 mol %, N:P 6
[7] = Table 4, LNP 40:10:48.5:1.5 mol %, N:P 9
[8] = Table 4, LNP 40:10:48.5:1.5 mol %, N:P 12
[9] = Table 4, LNP 50:10:38.5:1.5 mol %, N:P 6
[10] = Table 4, LNP 50:10:38.5:1.5 mol %, N:P 9
[11] = Table 4, LNP 50:10:38.5:1.5 mol %, N:P 12
[12] = Table 4, LNP 60:0:38.5:1.5 mol %, N:P 6
[13] = Table 4, LNP 60:0:38.5:1.5 mol %, N:P 9
[14] = Table 4, LNP 60:0:38.5:1.5 mol %, N:P 12

- PDI [1, 4]: 0.07
- Size [1, 4]: 61.6 nm
- PDI [1, 5]: 0.071
- Size ([1]; Table 3, LNP lipid:DSPC:Cholesterol:DMG-PEG2k 50:10:38.5:1.5 mol %, N:P 6): 70.6 nm
- PDI [1, 6]: 0.204
- Size [1, 6]: 56.4 nm
- PDI [1, 7]: 0.354
- Size [1, 7]: 67.8 nm
- PDI [1, 8]: 0.119
- Size [1, 8]: 75.7 nm
- PDI [1, 9]: 0.134
- PDI [1, 10]: 0.365
- Size [1, 10]: 65.3 nm
- PDI [1, 11]: 0.515
- Size [1, 11]: 67.8 nm
- PDI [1, 12]: 0.089
- Size [1, 12]: 125 nm
- PDI [1, 13]: 0.018
- Size [1, 13]: 123 nm
- PDI [1, 14]: 0.263
- Size [1, 14]: 55 nm
- Size ([1]; Table 4, LNP Lipid:DSPC:Cholesterol:DMG-PEG2k 50:10:38.5:1.5 mol %, N:P 6): 62.2 nm
- Zeta potential [2, 4]: −5.265 mV
- Zeta potential [2, 6]: −0.6716 mV
- Zeta potential [2, 7]: −1.95 mV
- Zeta potential [2, 8]: −3.302 mV
- Zeta potential [2, 9]: −4.369 mV
- Zeta potential [2, 10]: −2.051 mV
- Zeta potential [2, 11]: −4.408 mV
- Zeta potential [2, 12]: −5.393 mV
- Zeta potential [2, 13]: −5.043 mV
- Zeta potential [2, 14]: −5.125 mV
- Encapsulation Efficiency % [3, 4]: 96.7%
- Encapsulation Efficiency % [3, 5]: 95.1%
- Encapsulation Efficiency % [3, 6]: 87.7%
- Encapsulation Efficiency % [3, 7]: 98%
- Encapsulation Efficiency % [3, 8]: 98.3%
- Encapsulation Efficiency % [3, 9]: 96.3%
- Encapsulation Efficiency % [3, 10]: 98.6%
- Encapsulation Efficiency % [3, 11]: 98.2%
- Encapsulation Efficiency % [3, 12]: 90.2%
- Encapsulation Efficiency % [3, 13]: 92.3%
- Encapsulation Efficiency % [3, 14]: 94.8%
SMILES: CCCCCCCCC(CCCCCC)C(=O)OCCN(CCOC(=O)C(CCCCCC)CCCCCCCC)C(=O)C(N)Cc1ccccc1 (stereo not drawn) [Compound 117]

- Size [1, 4]: 105.4 nm
- Zeta potential [2, 4]: 8.346 mV
- Encapsulation Efficiency % [3, 4]: 93.1%
SMILES: CCCCCCCCCCCC(=O)OCCN(CCOC(=O)CCCCCCCCCCC)C(=O)C(N)CCCCN (stereo not drawn) [Compound 121]

- PDI [1, 4]: 0.259
- Size [1, 4]: 71.8 nm
- Zeta potential [2, 4]: 6.541 mV
- Encapsulation Efficiency % [3, 4]: 94.2%
SMILES: CCCCCCCCCC(=O)OCCN(CCOC(=O)CCCCCCCCC)C(=O)C(N)CCCCN (stereo not drawn) [Compound 122]

- PDI [1, 4]: 0.338
- Size [1, 4]: 83.3 nm
- Zeta potential [2, 4]: −3.45 mV
- Encapsulation Efficiency % [3, 4]: 97%
SMILES: CCCCCCCCC(CCCCCC)C(=O)OCCN(CCOC(=O)C(CCCCCC)CCCCCCCC)C(=O)C(N)CCCCN (stereo not drawn) [Compound 123]

- PDI [1, 4]: 0.387
- Size [1, 4]: 85.9 nm
- Zeta potential [2, 4]: 6.011 mV
- Encapsulation Efficiency % [3, 4]: 89.5%
SMILES: CCCCCCCCCCCC(=O)OCCN(CCOC(=O)CCCCCCCCCCC)C(=O)C(N)Cc1c[nH]cn1 (stereo not drawn) [Compound 127]

- PDI [1, 4]: 0.058
- Size [1, 4]: 77.8 nm
- Zeta potential [2, 4]: 6.43 mV
- Encapsulation Efficiency % [3, 4]: 95.2%
SMILES: CCCCCCCCCC(=O)OCCN(CCOC(=O)CCCCCCCCC)C(=O)C(N)Cc1c[nH]cn1 (stereo not drawn) [Compound 128]

- PDI [1, 4]: 0.146
- Size [1, 4]: 74.2 nm
- Zeta potential [2, 4]: −5.059 mV
- Encapsulation Efficiency % [3, 4]: 95.1%
SMILES: CCCCCCCCC(CCCCCC)C(=O)OCCN(CCOC(=O)C(CCCCCC)CCCCCCCC)C(=O)C(N)CO (stereo not drawn) [Compound 130]

- PDI [1, 4]: 0.15
- Size [1, 4]: 75.4 nm
- Zeta potential [2, 4]: −4.36 mV
- Encapsulation Efficiency % [3, 4]: 92.9%
SMILES: CCCCCCCC/C=C\CCCCCCCC(=O)OCCN(CCOC(=O)CCCCCCC/C=C\CCCCCCCC)C(=O)C(N)CO (stereo not drawn) [Compound 132]

- PDI [1, 4]: 0.321
- Size [1, 4]: 87.1 nm
- Zeta potential [2, 4]: 6.281 mV
- Encapsulation Efficiency % [3, 4]: 90.5%
SMILES: CCCCCCCCCCCC(=O)OCCN(CCOC(=O)CCCCCCCCCCC)C(=O)C(N)CO (stereo not drawn) [Compound 134]

- PDI [1, 4]: 0.228
- Size [1, 4]: 111.3 nm
- Zeta potential [2, 4]: 2.909 mV
- Encapsulation Efficiency % [3, 4]: 89.8%
SMILES: CCCCCCCCCC(=O)OCCN(CCOC(=O)CCCCCCCCC)C(=O)C(N)CO (stereo not drawn) [Compound 135]
